Test results taken from patent US20040138231A1, “Pharmaceutical composition which comprise a solid dispersion of a hydroxypropyl-methylcellulose phthalate polymer” (priority 2001, published 2004).
In brackets after ≈: the same amount, converted by molar mass. Like-named read-outs stand apart in the source and are kept apart here.

What was measured:
[1] = comparison compound of Kai T. et al., cited from earlier work
[2] = Solubility data for Compound 1 and the Antifungal; type: physicochemical
Factor Xa = Factor Xa (Homo sapiens, UniProt P00742); test: Factor Xa inhibitory activity versus thrombin; type: biochemical; settings: at concentrations which do not inhibit, or inhibit to a lesser extent
Factor Xa, sequence (P00742 235-488 limits assumed): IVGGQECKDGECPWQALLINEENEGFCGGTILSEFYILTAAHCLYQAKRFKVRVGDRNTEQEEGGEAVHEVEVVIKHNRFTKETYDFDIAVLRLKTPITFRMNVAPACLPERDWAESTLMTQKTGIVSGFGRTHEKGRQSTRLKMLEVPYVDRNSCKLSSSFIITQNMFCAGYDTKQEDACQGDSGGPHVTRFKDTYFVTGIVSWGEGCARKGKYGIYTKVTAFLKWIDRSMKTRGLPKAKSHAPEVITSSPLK
Factor Xa, sequence (P00742 41-179 partner limits assumed): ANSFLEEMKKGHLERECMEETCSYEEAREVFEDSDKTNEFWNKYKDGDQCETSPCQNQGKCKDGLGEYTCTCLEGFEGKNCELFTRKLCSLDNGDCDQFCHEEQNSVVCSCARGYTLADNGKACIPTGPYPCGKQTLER

[3] = Solubility Data for Compound 2; type: physicochemical

Structure (SMILES): CC(C)(Sc1ccc(-n2cncn2)nn1)C(O)(Cn1cncn1)c1ccc(F)cc1F (single isomer, unassigned; (+)) [Antifungal, (+)-2-(2,4-difluorophenyl)-3-methyl-1-(1H-1,2,4-triazol-1-yl)-3-[6-(1H-1,2,4-triazol-1-yl)pyridazin-3-ylthio]butan-2-ol]
- solubility ([1]; Water): 1.2 µg/mL (≈ 2.7 µM)
- solubility ([1]; pH1.2): 3.6 µg/mL (≈ 8.1 µM)
- solubility ([1]; pH6.8): 1.2 µg/mL (≈ 2.7 µM)

Structure (SMILES): O=C(c1ccc(-c2ccncc2)cc1)N1CCN(S(=O)(=O)c2ccc3cc(Cl)ccc3c2)CC1 [Compound 1, 1-(6-chloronaphth-2-ylsulfonyl)-4-[4-(4-pyridyl)benzoyl]piperazine]
- solubility in the duodenum, ileum and colon ([2]; main sites of adsorption): low solubility
- solubility at the acidic pH of the stomach ([2]; stomach pH): soluble within the acidic pH of the stomach
- solubility ([2]; water): < 5 µg/mL
- Factor Xa inhibitory activity relative to thrombin inhibition (Factor Xa): possesses Factor Xa inhibitory activity at concentrations which do not inhibit, or which inhibit to a lesser extent, the enzyme thrombin

Structure (SMILES): O=C(c1ccc(-c2ccncc2)cc1)N1CCN(S(=O)(=O)c2cc3cc(Cl)ccc3[nH]2)CC1 [Compound 2, 1-(5-chloroindol-2-ylsulfonyl)-4-[4-(4-pyridyl)benzoyl]piperazine]
- solubility ([3]; 0.1M hydrochloric acid, pH 1.4, simulated gastric fluid): 585 µg/mL (≈ 1220 µM)
- Stability of sample in solubility test ([3]; 0.1M sodium hydroxide, pH 12.7): NR* = no result, sample shows evidence of degradation.
- solubility ([3]; 0.9% saline, pH 2.5, saline or isotonic): 227 µg/mL (≈ 472 µM)
- solubility ([3]; aqueous buffer, pH 3 citrate buffer, pH 2.9): 193 µg/mL (≈ 401 µM)
- solubility ([3]; aqueous buffer, pH 5 citrate buffer, pH 5.0): 3 µg/mL (≈ 6.24 µM)
- solubility ([3]; aqueous buffer, pH 7 phosphate buffer, pH 7.1): < 2 µg/mL
- solubility ([3]; water, pH 2.6, water): 301 µg/mL (≈ 626 µM)
